# Biological target: T1, human A2a receptor (Homo sapiens, UniProt P29274)
# T1 construct: purchased Perkin-Elmer RBHA2AM400UA; host or cells: HEK293 cells (membranes)
# Assay: A2a competition binding assay, Scintillation Proximity technology
# Conditions: membranes from HEK293 cells expressing human A2a receptor; Ki by Cheng-Prusoff equation
# Outline: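 Membranes from HEK293 cells expressing human A2a, adenosine deaminase-treated, incubated 1 h at room temperature with compound (3000 to 0.15 nM) and 0.5 nM tritiated pyrazolotriazolopyrimidine radioligand on WGA SPA beads in Ca/Mg-free PBS + 10 mM MgCl2. Non-specific binding with 1 μM CGS15943; Ki by Cheng-Prusoff.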
# T1 sequence (P29274 whole entry): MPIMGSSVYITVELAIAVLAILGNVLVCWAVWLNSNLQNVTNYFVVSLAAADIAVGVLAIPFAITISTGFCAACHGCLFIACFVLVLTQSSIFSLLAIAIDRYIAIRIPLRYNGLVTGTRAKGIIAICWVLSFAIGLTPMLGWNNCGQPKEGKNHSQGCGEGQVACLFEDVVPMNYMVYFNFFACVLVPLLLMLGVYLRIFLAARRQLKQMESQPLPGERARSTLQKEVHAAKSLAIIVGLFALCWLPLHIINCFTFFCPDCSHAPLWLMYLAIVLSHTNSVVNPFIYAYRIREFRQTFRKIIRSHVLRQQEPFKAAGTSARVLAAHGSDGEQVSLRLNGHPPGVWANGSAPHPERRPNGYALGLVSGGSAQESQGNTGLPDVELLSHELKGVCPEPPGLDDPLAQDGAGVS
row,SMILES,Ki
1,"Nc1nc(-n2nccn2)c(Cl)nc1C(=O)NCCc1cnccn1 [Ex-311, 3-amino-6-chloro-N-(2-pyrazin-2-ylethyl)-5-(2H-1,2,3-triazol-2-yl)pyrazine-2-carboxamide]",1160 nM
2,"Nc1nc(-n2nccn2)c(Cl)nc1C(=O)N[C@@H](CO)c1ccccc1 [Ex-312, 3-amino-6-chloro-N-[(1R)-2-hydroxy-1-phenylethyl]-5-(2H-1,2,3-triazol-2-yl)pyrazine-2-carboxamide]",607 nM
3,"Nc1nc(-n2nccn2)c(Cl)nc1C(=O)N[C@H](CO)c1ccccc1 [Ex-313, 3-amino-6-chloro-N-[(1S)-2-hydroxy-1-phenylethyl]-5-(2H-1,2,3-triazol-2-yl)pyrazine-2-carboxamide]",22.8 nM
4,"Nc1nc(-n2nccn2)c(Cl)nc1C(=O)N[C@@H]1C[C@@]1(F)c1ccccc1 [Ex-316, 3-amino-6-chloro-N-[(1R,2R)-2-fluoro-2-phenylcyclopropyl]-5-(2H-1,2,3-triazol-2-yl)pyrazine-2-carboxamide]",66.9 nM
5,"Nc1nc(-n2nccn2)c(Cl)nc1C(=O)N[C@H]1C[C@@]1(F)c1ccccc1 [Ex-317, 3-amino-6-chloro-N-[(1S,2R)-2-fluoro-2-phenylcyclopropyl]-5-(2H-1,2,3-triazol-2-yl)pyrazine-2-carboxamide]",2200 nM
6,"COC(=O)[C@@H](CO)NC(=O)c1nc(Cl)c(-n2nccn2)nc1N [Ex-318, methyl N-{[3-amino-6-chloro-5-(2H-1,2,3-triazol-2-yl)pyrazin-2-yl]carbonyl}-D-serinate]",317 nM
7,"Nc1nc(-n2nccn2)c(Cl)nc1C(=O)NCC1CCCc2cccnc21 (stereo not drawn) [Ex-319, 3-amino-6-chloro-N-(5,6,7,8-tetrahydroquinolin-8-ylmethyl)-5-(2H-1,2,3-triazol-2-yl)pyrazine-2-carboxamide]",77.9 nM
8,"Nc1nc(-n2nccn2)c(Cl)nc1C(=O)N[C@H](CO)Cc1ccccc1 [Ex-320, 3-amino-N-[(1S)-1-benzyl-2-hydroxyethyl]-6-chloro-5-(2H-1,2,3-triazol-2-yl)pyrazine-2-carboxamide]",149 nM
9,"CN1CCC(NC(=O)c2nc(Cl)c(-n3nccn3)nc2N)c2ccccc21 (stereo not drawn) [Ex-322, 3-amino-6-chloro-N-(1-methyl-1,2,3,4-tetrahydroquinolin-4-yl)-5-(2H-1,2,3-triazol-2-yl)pyrazine-2-carboxamide]",61.9 nM
10,"COC(=O)[C@@H](NC(=O)c1nc(Cl)c(-n2nccn2)nc1N)c1ccccc1 [Ex-323, methyl (2S)-({[3-amino-6-chloro-5-(2H-1,2,3-triazol-2-yl)pyrazin-2-yl]carbonyl}amino) (phenyl)ethanoate]",65.3 nM
11,"Nc1nc(-n2nccn2)c(Cl)nc1C(=O)N[C@H](CO)c1ccccn1 [Ex-324, 3-amino-6-chloro-N-[(1S)-2-hydroxy-1-pyridin-2-ylethyl]-5-(2H-1,2,3-triazol-2-yl)pyrazine-2-carboxamide]",54 nM
12,"Nc1nc(-n2nccn2)c(Cl)nc1C(=O)N[C@H](CO)Cc1c[nH]c2ccccc12 [Ex-325, 3-amino-6-chloro-N-[(1S)-2-hydroxy-1-(1H-indol-3-ylmethyl)ethyl]-5-(2H-1,2,3-triazol-2-yl)pyrazine-2-carboxamide]",337 nM
13,"Cc1cnn(-c2nc(N)c(C(=O)N[C@@H]3CCc4ccccc43)nc2Cl)c1 [Ex-336, 3-amino-6-chloro-N-[(1R)-2,3-dihydro-1H-inden-1-yl]-5-(4-methyl-1H-pyrazol-1-yl)pyrazine-2-carboxamide]",135 nM
14,"Cc1ccn(-c2nc(N)c(C(=O)N[C@@H]3CCc4ccccc43)nc2Cl)n1 [Ex-339, 3-amino-6-chloro-N-[(1R)-2,3-dihydro-1H-inden-1-yl]-5-(3-methyl-1H-pyrazol-1-yl)pyrazine-2-carboxamide]",117 nM
15,"Cc1cnn(-c2nc(N)c(C(=O)NCc3ncccc3C)nc2C)c1 [Ex-341, 3-amino-6-methyl-5-(4-methyl-1H-pyrazol-1-yl)-N-[(3-methylpyridin-2-yl)methyl]pyrazine-2-carboxamide]",105 nM
16,"Cc1cnn(-c2nc(N)c(C(=O)NCc3nccc4ccccc34)nc2C)c1 [Ex-342, 3-amino-N-(isoquinolin-1-ylmethyl)-6-methyl-5-(4-methyl-1H-pyrazol-1-yl)pyrazine-2-carboxamide]",122 nM
17,"Cc1cnn(-c2nc(N)c(C(=O)NC3CCNc4ccccc43)nc2Cl)n1 (stereo not drawn) [Ex-346, 3-amino-6-chloro-5-(4-methyl-2H-1,2,3-triazol-2-yl)-N-(1,2,3,4-tetrahydroquinolin-4-yl)pyrazine-2-carboxamide]",397 nM

# The next lines start with the values.
row,Ki,SMILES
1,180 nM,"Nc1nc(-n2nccn2)c(Cl)nc1C(=O)NCc1cccc2ncccc12 [Ex-309, 3-amino-6-chloro-N-(quinolin-5-ylmethyl)-5-(2H-1,2,3-triazol-2-yl)pyrazine-2-carboxamide]"
2,15.7 nM,"Nc1nc(-n2nccn2)c(Cl)nc1C(=O)NCc1cn2ccsc2n1 [Ex-310, 3-amino-6-chloro-N-(imidazo[2,1-b][1,3]thiazol-6-ylmethyl)-5-(2H-1,2,3-triazol-2-yl)pyrazine-2-carboxamide]"
3,3.7 nM,"Nc1nc(-n2nccn2)c(Cl)nc1C(=O)NCc1cccc2c1C(=O)NC2 [Ex-314, 3-amino-6-chloro-N-[(3-oxo-2,3-dihydro-1H-isoindol-4-yl)methyl]-5-(2H-1,2,3-triazol-2-yl)pyrazine-2-carboxamide]"
4,195 nM,"Nc1nc(-n2nccn2)c(Cl)nc1C(=O)NCCOc1ccccc1 [Ex-315, 3-amino-6-chloro-N-(2-phenoxyethyl)-5-(2H-1,2,3-triazol-2-yl)pyrazine-2-carboxamide]"
5,70.2 nM,"Nc1nc(-n2nccn2)c(Cl)nc1C(=O)NCc1ncc[nH]1 [Ex-321, 3-amino-6-chloro-N-(1H-imidazol-2-ylmethyl)-5-(2H-1,2,3-triazol-2-yl)pyrazine-2-carboxamide]"
6,6.1 nM,"Cc1cccc(CNC(=O)c2nc(Cl)c(-n3nccn3)nc2N)n1 [Ex-326, 3-amino-6-chloro-N-[(6-methylpyridin-2-yl)methyl]-5-(2H-1,2,3-triazol-2-yl)pyrazine-2-carboxamide]"
7,55.7 nM,"Nc1nc(-n2cncn2)c(Cl)nc1C(=O)NCc1ccccc1C(F)(F)F [Ex-327, 3-amino-6-chloro-5-(1H-1,2,4-triazol-1-yl)-N-[2-(trifluoromethyl)benzyl] pyrazine-2-carboxamide]"
8,627 nM,"Nc1nc(-n2cncn2)c(Cl)nc1C(=O)NCc1ccc(F)cc1F [Ex-328, 3-amino-6-chloro-N-(2,4-difluorobenzyl)-5-(1H-1,2,4-triazol-1-yl)pyrazine-2-carboxamide]"
9,8.6 nM,"Nc1nc(-n2cccn2)c(Cl)nc1C(=O)NCc1ccccc1C(F)(F)F [Ex-329, 3-amino-6-chloro-5-(1H-pyrazol-1-yl)-N-[2-(trifluoromethyl)benzyl] pyrazine-2-carboxamide]"
10,61.5 nM,"Nc1nc(-n2cccn2)c(Cl)nc1C(=O)NCc1ccc(F)cc1 [Ex-330, 3-amino-6-chloro-N-(4-fluorobenzyl)-5-(1H-pyrazol-1-yl)pyrazine-2-carboxamide]"
11,75.4 nM,"Nc1nc(-n2cccn2)c(Cl)nc1C(=O)NCc1ccc(F)cc1F [Ex-331, 3-amino-6-chloro-N-(2,4-difluorobenzyl)-5-(1H-pyrazol-1-yl)pyrazine-2-carboxamide]"
12,4.1 nM,"Nc1nc(-n2cccn2)c(Cl)nc1C(=O)NCc1cccc2cccnc12 [Ex-332, 3-amino-6-chloro-5-(1H-pyrazol-1-yl)-N-(quinolin-8-ylmethyl)pyrazine-2-carboxamide]"
13,57.9 nM,"Nc1nc(-n2cccn2)c(Cl)nc1C(=O)N[C@@H]1CCc2ccccc21 [Ex-333, 3-amino-6-chloro-N-[(1R)-2,3-dihydro-1H-inden-1-yl]-5-(1H-pyrazol-1-yl)pyrazine-2-carboxamide]"
14,13.7 nM,"Cc1cccnc1CNC(=O)c1nc(Cl)c(-n2cccn2)nc1N [Ex-334, 3-amino-6-chloro-N-[(3-methylpyridin-2-yl)methyl]-5-(1H-pyrazol-1-yl)pyrazine-2-carboxamide]"
15,114 nM,"Cc1cnn(-c2nc(N)c(C(=O)NCc3ccccc3C(F)(F)F)nc2Cl)c1 [Ex-335, 3-amino-6-chloro-5-(4-methyl-1H-pyrazol-1-yl)-N-[2-(trifluoromethyl)benzyl] pyrazine-2-carboxamide]"
16,11.2 nM,"Cc1cnn(-c2nc(N)c(C(=O)NCc3ncccc3C)nc2Cl)c1 [Ex-337, 3-amino-6-chloro-5-(4-methyl-1H-pyrazol-1-yl)-N-[(3-methylpyridin-2-yl)methyl]pyrazine-2-carboxamide]"
17,133 nM,"Cc1ccn(-c2nc(N)c(C(=O)NCc3ccccc3C(F)(F)F)nc2Cl)n1 [Ex-338, 3-amino-6-chloro-5-(3-methyl-1H-pyrazol-1-yl)-N-[2-(trifluoromethyl)benzyl] pyrazine-2-carboxamide]"
18,12.8 nM,"Cc1cnn(-c2nc(N)c(C(=O)NCc3cccc4cccnc34)nc2Cl)c1 [Ex-340, 3-amino-6-chloro-5-(4-methyl-1H-pyrazol-1-yl)-N-(quinolin-8-ylmethyl)pyrazine-2-carboxamide]"
19,35.9 nM,"Cc1cnn(-c2nc(N)c(C(=O)NCc3ncccc3C(F)(F)F)nc2Cl)c1 [Ex-343, 3-amino-6-chloro-5-(4-methyl-1H-pyrazol-1-yl)-N-{[3-(trifluoromethyl)pyridin-2-yl]methyl}pyrazine-2-carboxamide]"
20,31 nM,"Cc1cnn(-c2nc(N)c(C(=O)NCc3ccc(F)cc3F)nc2Cl)n1 [Ex-344, 3-amino-6-chloro-N-(2,4-difluorobenzyl)-5-(4-methyl-2H-1,2,3-triazol-2-yl)pyrazine-2-carboxamide]"
21,6 nM,"Cc1cnn(-c2nc(N)c(C(=O)NCc3ncccc3C)nc2Cl)n1 [Ex-345, 3-amino-6-chloro-N-[(3-methylpyridin-2-yl)methyl]-5-(4-methyl-2H-1,2,3-triazol-2-yl)pyrazine-2-carboxamide]"
22,46.4 nM,"Cc1nc(C(=O)NCc2cccc3cccnc23)c(N)nc1-n1cccn1 [Ex-347, 3-amino-6-methyl-5-(1H-pyrazol-1-yl)-N-(quinolin-8-ylmethyl)pyrazine-2-carboxamide]"

# — patent US10472347B2, “Aminopyrazine compounds with A2A antagonist properties” (Merck Sharp & Dohme Corp., priority 2014, dated 2019)
